Assay [1] has as its system NCI-H226. Description: Antiproliferative activity against human NCI-H226 cells assessed as ATP level after 72 hrs by CellTiter-Glo assay. In kind it is functional, cell-based. To be noted: NCI-H226, 72 h.
The nature of assay [2]: Antiproliferative activity against human 786-O cells assessed as ATP level after 72 hrs by CellTiter-Glo assay. In kind it is functional, cell-based. To be noted: 786-0, 72 h. (ATP-based viability assays read luminescence as a measure of living cells.)

For orientation: EC50 means the concentration needed to bring the measured effect to its halfway point. For the compound `C[C@@H](O)[C@@]12O[C@]13c1cc(O)c4c(c1N[C@H]2C#C/C=C\C#C[C@H]3O)C(=O)c1ccc(NCCN)cc1C4=O`, the EC50 in assay [1] turned out to be 0.986 nM; in assay [2], 1.27 nM.

Regarding `C[C@@H](O)[C@@]12O[C@]13c1cc(O)c4c(c1N[C@H]2C#C/C=C\C#C[C@H]3O)C(=O)c1ccc(NC(=O)c2ccc(N)cc2)cc1C4=O`, the EC50 in assay [1] is 0.873 nM; in assay [2], 0.058 nM.

These data come from ChEMBL document CHEMBL3091374, “New synthetic enediynes and their conjugates may provide effective treatment for cancer” (ACS Med Chem Lett, 2013).
